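Test compounds were applied to cells in 96-well plates for 48 hours at 5 doses. Abbreviation: GI50, concentration required for 50% inhibition of growth.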 Calls of active or inactive are those of the source. No stated cut-off is given here; in the data, active = GI50 up to about 1.1 µM and inactive = higher.
Columns and labels:
Assay in all cases: NCI-60 cell line screen, 48 h
Hs-578T = system: Hs-578T
786-0 = system: 786-0
NCI-H522 = system: NCI-H522
SK-MEL-2 = system: SK-MEL-2
RXF 393 = system: RXF 393
SK-MEL-28 = system: SK-MEL-28
IGROV-1 = system: IGROV-1
OVCAR-4 = system: OVCAR-4
HT-29 = system: HT-29
CAKI-1 = system: CAKI-1
LOX IMVI = system: LOX IMVI
DU-145 = system: DU-145
SN12C = system: SN12C
NCI-H226 = system: NCI-H226
M14 = system: M14
HCC 2998 = system: HCC 2998
EKVX = system: EKVX
BT-549 = system: BT-549
MCF7 = system: MCF7
HCT-15 = system: HCT-15
MDA-MB-231 = system: MDA-MB-231
UO-31 = system: UO-31
HCT-116 = system: HCT-116
HOP-62 = system: HOP-62
U-251 = system: U-251
SF-295 = system: SF-295
CCRF-CEM = system: CCRF-CEM
OVCAR-5 = system: OVCAR-5
COLO 205 = system: COLO 205
SF-539 = system: SF-539
OVCAR-3 = system: OVCAR-3
MDA-MB-435 = system: MDA-MB-435
PC-3 = system: PC-3
A498 = system: A498
SK-MEL-5 = system: SK-MEL-5
UACC-62 = system: UACC-62
NCI-H23 = system: NCI-H23
SK-OV-3 = system: SK-OV-3
HL-60 = system: HL-60
OVCAR-8 = system: OVCAR-8
T47D = system: T47D
SNB-19 = system: SNB-19
NCI/ADR-RES = system: NCI/ADR-RES
SW-620 = system: SW-620
SF-268 = system: SF-268
TK-10 = system: TK-10
NCI-H460 = system: NCI-H460
A549 = system: A549
MDA-N = system: MDA-N
HOP-92 = system: HOP-92
UACC-257 = system: UACC-257
KM12 = system: KM12
K562 = system: K562
MOLT-4 = system: MOLT-4
ACHN = system: ACHN
RPMI-8226 = system: RPMI-8226
SNB-75 = system: SNB-75
Malme-3M = system: Malme-3M

Measured: GI50

CC1=CC(C)(C)NN1C1=NS(=O)(=O)c2ccccc2N1C
inactive: Hs-578T > 100 µM | 786-0 > 100 µM | NCI-H522 > 100 µM | SK-MEL-2 > 100 µM | RXF 393 > 100 µM | SK-MEL-28 > 100 µM | IGROV-1 > 100 µM | OVCAR-4 44.3 µM | HT-29 > 100 µM | CAKI-1 > 100 µM | LOX IMVI > 100 µM | DU-145 > 100 µM | SN12C > 100 µM | NCI-H226 > 100 µM | M14 > 100 µM | HCC 2998 > 100 µM | EKVX > 100 µM | BT-549 > 100 µM | MCF7 > 100 µM | MDA-MB-231 > 100 µM | UO-31 78.3 µM | HCT-116 > 100 µM | HOP-62 > 100 µM | U-251 > 100 µM | SF-295 > 100 µM | CCRF-CEM 98.9 µM | OVCAR-5 > 100 µM | COLO 205 > 100 µM | SF-539 > 100 µM | OVCAR-3 > 100 µM | MDA-MB-435 > 100 µM | PC-3 > 100 µM | A498 > 100 µM | SK-MEL-5 > 100 µM | UACC-62 > 100 µM | NCI-H23 > 100 µM | SK-OV-3 > 100 µM | HL-60 > 100 µM | OVCAR-8 > 100 µM | T47D > 100 µM | SNB-19 > 100 µM | NCI/ADR-RES > 100 µM | SW-620 > 100 µM | SF-268 > 100 µM | TK-10 > 100 µM | NCI-H460 > 100 µM | A549 > 100 µM | MDA-N > 100 µM | HOP-92 > 100 µM | UACC-257 > 100 µM | KM12 > 100 µM | K562 > 100 µM | MOLT-4 47.9 µM | ACHN > 100 µM
89.9 µM: HCT-15

CC(=O)/C(=C/c1ccccc1F)C(=O)c1ccccc1
27.7 µM: HCT-15
inactive: RPMI-8226 18.3 µM | Hs-578T 32.4 µM | 786-0 31.7 µM | NCI-H522 26.5 µM | SK-MEL-2 27.5 µM | RXF 393 17.4 µM | SK-MEL-28 53.2 µM | IGROV-1 44.2 µM | OVCAR-4 67.8 µM | HT-29 33.1 µM | CAKI-1 > 100 µM | LOX IMVI 17.8 µM | DU-145 33.6 µM | SN12C 37.2 µM | NCI-H226 76.4 µM | M14 56 µM | HCC 2998 16.2 µM | EKVX 67.1 µM | BT-549 48.2 µM | MCF7 37.2 µM | MDA-MB-231 26.1 µM | UO-31 34.1 µM | HCT-116 27.8 µM | HOP-62 35.2 µM | U-251 29.6 µM | SF-295 43.8 µM | OVCAR-5 > 100 µM | COLO 205 60.5 µM | SF-539 > 100 µM | OVCAR-3 18.6 µM | MDA-MB-435 37.9 µM | PC-3 27.7 µM | SNB-75 38.9 µM | A498 > 100 µM | SK-MEL-5 42.9 µM | UACC-62 37.2 µM | NCI-H23 32 µM | SK-OV-3 34.9 µM | HL-60 21.4 µM | OVCAR-8 21.6 µM | T47D 24.9 µM | SNB-19 60.7 µM | NCI/ADR-RES 29.1 µM | SW-620 20.7 µM | SF-268 33.2 µM | TK-10 24.4 µM | NCI-H460 25.1 µM | A549 57 µM | MDA-N 37.9 µM | HOP-92 91.8 µM | UACC-257 25.9 µM | KM12 30.9 µM | MOLT-4 2.19 µM | ACHN 35.2 µM

COc1ccc(/C=C2\Sc3nnc(C)n3N=C2c2cc(F)c(Cl)cc2Cl)cc1OC
inactive: RPMI-8226 2.58 µM | Hs-578T 41.9 µM | 786-0 2.97 µM | NCI-H522 11.3 µM | SK-MEL-2 15.9 µM | RXF 393 15.9 µM | SK-MEL-28 23.3 µM | IGROV-1 16 µM | OVCAR-4 13.2 µM | HT-29 13.2 µM | CAKI-1 8.13 µM | LOX IMVI 13.8 µM | DU-145 14.7 µM | SN12C 17.5 µM | NCI-H226 23.2 µM | M14 13.6 µM | HCC 2998 17.6 µM | EKVX 10.8 µM | BT-549 17.8 µM | MCF7 5.87 µM | MDA-MB-231 26.4 µM | UO-31 10.4 µM | HCT-116 5.98 µM | HOP-62 17 µM | U-251 15.8 µM | SF-295 22.1 µM | CCRF-CEM 4.18 µM | OVCAR-5 15.6 µM | COLO 205 22.3 µM | SF-539 17 µM | OVCAR-3 4.52 µM | MDA-MB-435 10.4 µM | PC-3 18.7 µM | A498 19.3 µM | Malme-3M 18.3 µM | SK-MEL-5 18.8 µM | UACC-62 16.7 µM | NCI-H23 12.4 µM | SK-OV-3 30.1 µM | HL-60 8.95 µM | OVCAR-8 15.5 µM | T47D 24.8 µM | SNB-19 1.19 µM | NCI/ADR-RES 14.6 µM | SW-620 5.33 µM | SF-268 22.4 µM | TK-10 17.9 µM | NCI-H460 20.8 µM | A549 21.2 µM | MDA-N 5.32 µM | HOP-92 13.8 µM | UACC-257 17 µM | KM12 15.2 µM | K562 3.09 µM | MOLT-4 3.35 µM | ACHN 12.6 µM
6.93 µM: HCT-15
